From patent publication EP4635945A1, “CRYSTAL FORM OF PROXIMOD, PREPARATION METHOD THEREFOR, AND USE THEREOF” (Jiankuan (Suzhou) Biotechnology Co., Ltd, priority 2022, dated 2024)

Test: Solid-state stability of crystal forms on storage (XRPD, purity)
Assay type: physicochemical
Details: for Maximum single impurity after storage / Crystal form after storage / Main purity after storage: 30 days, exposed; for Time the crystal form remains stable: at 60 °C, 92.5% RH, and 45 °C/75% RH
Method: The crystal forms of the samples before and after storage were tested by XRPD.

| Maximum single impurity after storage (At 40 °C/75% RH) | Crystal form after storage (At 40 °C/75% RH, hydrochloride) | Main purity after storage (At 40 °C/75% RH, hydrochloride) | Maximum single impurity after storage (At 60 °C) | Crystal form after storage (At 60 °C, hydrochloride) | Main purity after storage (At 60 °C, hydrochloride) | Maximum single impurity after storage (At 92.5%RH) | Crystal form after storage (At 92.5%RH, hydrochloride) | Main purity after storage (At 92.5%RH, hydrochloride) | Maximum single impurity before storage | Main purity before storage (hydrochloride) | Crystal form after storage (In light, hydrochloride) | Main purity after storage (In light, hydrochloride) | Maximum single impurity after storage (In light, hydrochloride) | Time the crystal form remains stable | SMILES |
| --- | --- | --- | --- | --- | --- | --- | --- | --- | --- | --- | --- | --- | --- | --- | --- |
| Maximum single impurity: 0.04 A% | Crystal form A | Main purity: 99.82 A% | Maximum single impurity: 0.04 A% | Crystal form A | Main purity: 99.80 A% | Maximum single impurity: 0.04 A% | Crystal form A | Main purity: 99.81 A% | Maximum single impurity: 0.04 A% | Main purity: 99.79 A% | Crystal form A | Main purity: 98.83 A% | Maximum single impurity: 0.43 A% | at least 30 days | CCCc1nc(-c2ccc(-c3ccc(CCC(N)(CO)CO)cc3)cc2)co1.Cl [Crystal form A, 2-amino-2-{2-(4'-(2-propyloxazol-4-yl)-[1,1'-biphenyl]-4-yl)ethyl}-1,3-propanediol hydrochloride] |
| Maximum single impurity: 0.04 A% | Crystal form B | Main purity: 99.80 A% | Maximum single impurity: 0.04 A% | Crystal form B | Main purity: 99.79 A% | Maximum single impurity: 0.04 A% | Crystal form B | Main purity: 99.83 A% | Maximum single impurity: 0.04 A% | Main purity: 99.78 A% | Crystal form B | Main purity: 99.19 A% | Maximum single impurity: 0.21 A% | at least 30 days | CCCc1nc(-c2ccc(-c3ccc(CCC(N)(CO)CO)cc3)cc2)co1.Cl [Crystal form B, 2-amino-2-{2-(4'-(2-propyloxazol-4-yl)-[1,1'-biphenyl]-4-yl)ethyl}-1,3-propanediol hydrochloride] |
